Results taken from patent publication US20170334899A1, “AMINO-SUBSTITUTED ISOTHIAZOLES” (Bayer Pharma Aktiengesellschaft, priority 2014, published 2017).
Where two headings read alike, the source gives them in different places.

Tests used:
HeLa = experiment: Proliferation assay (crystal violet), HeLa; format: cell-based; conditions: HeLa cells, 4 days incubation, crystal violet staining, read-out: IC50 inhibition of proliferation, HeLa
Summary of the method: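 Cells plated at 1000-5000/well with 10% FCS, treated after 24 h with compound at 0.001-10 μM (0.5% DMSO) for 4 days. Glutaraldehyde-fixed, crystal violet-stained, A595 normalised to zero-point plate (0%) and untreated cells (100%); IC50 by 4-parameter fit.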

[1] = molecular target: T1, catalytic domain of human Bub1 (amino acids 704-1085) (Homo sapiens, UniProt O43683); experiment: Bub1 kinase assay (TR-FRET); format: biochemical; conditions: 10 μM ATP, avg, read-out: Bub1 avg (IC50 [mol/l])
T1 construct: catalytic domain of human Bub1 (amino acids 704-1085); His6 (N); made in house; host or cells: insect cells (Hi5)
T1 sequence (O43683 704-1085): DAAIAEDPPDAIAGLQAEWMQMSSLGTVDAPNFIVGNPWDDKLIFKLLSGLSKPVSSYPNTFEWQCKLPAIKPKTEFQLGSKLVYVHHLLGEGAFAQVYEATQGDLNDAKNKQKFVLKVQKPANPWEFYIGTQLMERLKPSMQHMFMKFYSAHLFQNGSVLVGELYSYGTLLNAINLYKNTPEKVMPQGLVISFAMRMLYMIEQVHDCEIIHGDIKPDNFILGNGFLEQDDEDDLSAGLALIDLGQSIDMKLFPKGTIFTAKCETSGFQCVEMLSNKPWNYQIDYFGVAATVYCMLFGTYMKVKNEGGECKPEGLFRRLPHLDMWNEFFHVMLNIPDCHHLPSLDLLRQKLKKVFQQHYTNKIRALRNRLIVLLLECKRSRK
Summary of the method: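 Readout is the 665/620 nm TR-FRET ratio from anti-phosphoserine antibody, Eu-labelled anti-mouse IgG and streptavidin-XL665, scaled between no-enzyme and uninhibited controls. Reaction: 1 μM biotinylated peptide, 10 μM ATP, 60 min, 22 °C, after 15 min compound preincubation with His6-Bub1 (704-1085, insect-expressed, ~200 ng/ml).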

Row | SMILES | IC50 (HeLa; Homo sapiens, HeLa, 96 h) | IC50 [1] | IC50 (HeLa)
1 | Cc1nsc(Nc2cnc(C(F)(F)F)cn2)c1C(=O)Nc1ccc(OCC2CCN(CC(F)F)CC2)nc1 [Example 345, N-(6-{[1-(2,2-difluoroethyl)piperidin-4-yl]methoxy}pyridin-3-yl)-3-methyl-5-{[5-(trifluoromethyl)pyrazin-2-yl]amino}-1,2-thiazole-4-carboxamide] | 270 nM | ≥ 20000 nM | –
2 | Cc1nsc(Nc2cnc(C(F)(F)F)cn2)c1C(=O)Nc1ccc(OCC2CCN(CC(F)(F)F)CC2)nc1 [Example 346, 3-methyl-N-(6-{[1-(2,2,2-trifluoroethyl)piperidin-4-yl]methoxy}pyridin-3-yl)-5-{[5-(trifluoromethyl)pyrazin-2-yl]amino}-1,2-thiazole-4-carboxamide] | 270 nM | ≥ 20000 nM | –
3 | Cc1nsc(Nc2cnc(C(F)(F)F)cn2)c1C(=O)Nc1ccc(OCC2CCN(CCC(F)(F)F)CC2)nc1 [Example 347, 3-methyl-5-{[5-(trifluoromethyl)pyrazin-2-yl]amino}-N-(6-{[1-(3,3,3-trifluoropropyl)piperidin-4-yl]methoxy}pyridin-3-yl)-1,2-thiazole-4-carboxamide] | 390 nM | ≥ 20000 nM | –
4 | Cc1nsc(Nc2cnc(C(F)(F)F)cn2)c1C(=O)Nc1ccc(OCCN(C)CCC(F)(F)F)nc1 [Example 351, 3-methyl-N-(6-{2-[methyl(3,3,3-trifluoropropyl)amino]ethoxy}pyridin-3-yl)-5-{[5-(trifluoromethyl)pyrazin-2-yl]amino}-1,2-thiazole-4-carboxamide] | 350 nM | ≥ 20000 nM | –
5 | Cc1nsc(Nc2cnc(C(F)(F)F)cn2)c1C(=O)Nc1ccc(CCC2CCN(CC(F)F)CC2)nc1 [Example 356, N-(6-{2-[1-(2,2-difluoroethyl)piperidin-4-yl]ethyl}pyridin-3-yl)-3-methyl-5-{[5-(trifluoromethyl)pyrazin-2-yl]amino}-1,2-thiazole-4-carboxamide] | 770 nM | > 20000 nM | –
6 | Cc1nsc(Nc2cnc(C(F)(F)F)cn2)c1C(=O)Nc1ccc(C2CCN(CC(F)F)CC2)nc1 [Example 357, N-{6-[1-(2,2-difluoroethyl)piperidin-4 yl]pyridin-3-yl}-3-methyl-5-{[5-(trifluoromethyl)pyrazin-2-yl]amino}-1,2-thiazole-4-carboxamide] | 430 nM | > 20000 nM | –
7 | Cc1nsc(Nc2cnc(C(F)(F)F)cn2)c1C(=O)Nc1ccc(C2CCN(CC(F)(F)F)CC2)nc1 [Example 358, 3-methyl-N-{6-[1-(2,2,2-trifluoroethyl)piperidin-4-yl]pyridin-3-yl}-5-{[5-(trifluoromethyl)pyrazin-2-yl]amino}-1,2-thiazole-4-carboxamide] | 320 nM | > 20000 nM | –
8 | Cc1nsc(Nc2cnc(C(F)(F)F)cn2)c1C(=O)Nc1ccc(N2CCN(CC(F)F)CC2)nc1 [Example 359, N-{6-[4-(2,2-difluoroethyl)piperazin-1-yl]pyridin-3-yl}-3-methyl-5-{[5-(trifluoromethyl)pyrazin-2-yl]amino}-1,2-thiazole-4-carboxamide] | 640 nM | > 20000 nM | –
9 | Cc1nsc(Nc2cnc(C(F)(F)F)cn2)c1C(=O)Nc1ccc(N2CCN(CC(F)(F)F)CC2)nc1 [Example 360, 3-methyl-N-{6-[4-(2,2,2-trifluoroethyl)piperazin-1-yl]pyridin-3-yl}-5-{[5-(trifluoromethyl)pyrazin-2-yl]amino}-1,2-thiazole-4-carboxamide] | 350 nM | > 20000 nM | –
10 | Cc1nsc(Nc2cnc(C(F)(F)F)cn2)c1C(=O)Nc1ccc(N2CCN(CCC(F)(F)F)CC2)nc1 [Example 361, 3-methyl-5-{[5-(trifluoromethyl)pyrazin-2-yl]amino}-N-{6-[4-(3,3,3-trifluoropropyl)piperazin-1-yl]pyridin-3-yl}-1,2-thiazole-4-carboxamide] | 380 nM | > 20000 nM | –

Next, values leading:

Row | IC50 (HeLa; Homo sapiens, HeLa, 96 h) | IC50 [1] | IC50 (HeLa) | SMILES
11 | 260 nM | ≥ 20000 nM | – | Cc1nsc(Nc2cnc(C(F)(F)F)cn2)c1C(=O)Nc1ccc(OC2CCCN(CC(F)(F)F)C2)nc1 (stereo not drawn) [Example 331, 3-methyl-N-(6-{[1-(2,2,2-trifluoroethyl)piperidin-3-yl]oxy}pyridin-3-yl)-5-{[5-(trifluoromethyl)pyrazin-2-yl]amino}-1,2-thiazole-4-carboxamide]
12 | 350 nM | ≥ 20000 nM | – | Cc1nsc(Nc2cnc(C(F)(F)F)cn2)c1C(=O)Nc1ccc(OC2CCCN(CCC(F)(F)F)C2)nc1 (stereo not drawn) [Example 332, 3-methyl-5-{[5-(trifluoromethyl)pyrazin-2-yl]amino}-N-(6-{[1-(3,3,3-trifluoropropyl)piperidin-3-yl]oxy}pyridin-3-yl)-1,2-thiazole-4-carboxamide]
13 | 1200 nM | ≥ 20000 nM | – | Cc1nsc(Nc2cnc(C(F)(F)F)cn2)c1C(=O)Nc1ccc(OC2CCCN(C(CF)CF)C2)nc1 (stereo not drawn) [Example 333, N-(6-{[1-(1,3-difluoropropan-2-yl)piperidin-3-yl]oxy}pyridin-3-yl)-3-methyl-5-{[5-(trifluoromethyl)pyrazin-2-yl]amino}-1,2-thiazole-4-carboxamide]
14 | – | ≥ 20000 nM | 370 nM | Cc1nsc(Nc2cnc(C(F)(F)F)cn2)c1C(=O)Nc1ccc(F)c(OCC2CCCN(CC(F)F)C2)c1 (stereo not drawn) [Example 334, N-(3-{[1-(2,2-difluoroethyl)piperidin-3-yl]methoxy}-4-fluorophenyl)-3-methyl-5-{[5-(trifluoromethyl)pyrazin-2-yl]amino}-1,2-thiazole-4-carboxamide]
15 | 390 nM | ≥ 20000 nM | – | Cc1nsc(Nc2cnc(C(F)(F)F)cn2)c1C(=O)Nc1ccc(F)c(OCC2CCCN(CCF)C2)c1 (stereo not drawn) [Example 336, N-(4-fluoro-3-{[1-(2-fluoroethyl)piperidin-3-yl]methoxy}phenyl)-3-methyl-5-{[5-(trifluoromethyl)pyrazin-2-yl]amino}-1,2-thiazole-4-carboxamide]
16 | 370 nM | ≥ 20000 nM | – | Cc1nsc(Nc2cnc(C(F)(F)F)cn2)c1C(=O)Nc1ccc(F)c(OCC2CCCN(CC(F)(F)F)C2)c1 (stereo not drawn) [Example 337, N-(4-fluoro-3-{[1-(2,2,2-trifluoroethyl)piperidin-3-yl]methoxy}phenyl)-3-methyl-5-{[5-(trifluoromethyl)pyrazin-2-yl]amino}-1,2-thiazole-4-carboxamide]
17 | 450 nM | ≥ 20000 nM | – | Cc1nsc(Nc2cnc(C(F)(F)F)cn2)c1C(=O)Nc1ccc(F)c(OCC2CCCN(CCC(F)(F)F)C2)c1 (stereo not drawn) [Example 338, N-(4-fluoro-3-{[1-(3,3,3-trifluoropropyl)piperidin-3-yl]methoxy}phenyl)-3-methyl-5-{[5-(trifluoromethyl)pyrazin-2-yl]amino}-1,2-thiazole-4-carboxamide]
18 | 380 nM | > 20000 nM | – | Cc1nsc(Nc2cnc(C(F)(F)F)cn2)c1C(=O)Nc1ccc(F)c(OC[C@@H]2CCN(CC(F)(F)F)C2)c1 [Example 339, N-(4-fluoro-3-{[(3R)-1-(2,2,2-trifluoroethyl)pyrrolidin-3-yl]methoxy}phenyl)-3-methyl-5-{[5-(trifluoromethyl)pyrazin-2-yl]amino}-1,2-thiazole-4-carboxamide]
19 | 430 nM | > 20000 nM | – | Cc1nsc(Nc2cnc(C(F)(F)F)cn2)c1C(=O)Nc1ccc(F)c(OC[C@@H]2CCN(CCC(F)(F)F)C2)c1 [Example 340, N-(4-fluoro-3-{[(3R)-1-(3,3,3-trifluoropropyl)pyrrolidin-3-yl]methoxy}phenyl)-3-methyl-5-{[5-(trifluoromethyl)pyrazin-2-yl]amino}-1,2-thiazole-4-carboxamide]
20 | 440 nM | > 20000 nM | – | Cc1nsc(Nc2cnc(C(F)(F)F)cn2)c1C(=O)Nc1ccc(F)c(OC[C@@H]2CCCN(CC(F)F)C2)c1 [Example 341, N-(3-{[(3R)-1-(2,2-difluoroethyl)piperidin-3-yl]methoxy}-4-fluorophenyl)-3-methyl-5-{[5-(trifluoromethyl)pyrazin-2-yl]amino}-1,2-thiazole-4-carboxamide]
21 | 470 nM | > 20000 nM | – | Cc1nsc(Nc2cnc(C(F)(F)F)cn2)c1C(=O)Nc1ccc(F)c(OC[C@@H]2CCCN(CC(F)(F)F)C2)c1 [Example 342, N-(4-fluoro-3-{[(3R)-1-(2,2,2-trifluoroethyl)piperidin-3-yl]methoxy}phenyl)-3-methyl-5-{[5-(trifluoromethyl)pyrazin-2-yl]amino}-1,2-thiazole-4-carboxamide]
22 | 1400 nM | ≥ 20000 nM | – | Cc1nsc(Nc2cncc(C(F)(F)F)n2)c1C(=O)Nc1ccc(F)c(OC2CCN(CCC(F)(F)F)CC2)c1 [Example 343, N-(4-fluoro-3-{[1-(3,3,3-trifluoropropyl)piperidin-4-yl]oxy}phenyl)-3-methyl-5-{[6-(trifluoromethyl)pyrazin-2-yl]amino}-1,2-thiazole-4-carboxamide]
23 | 990 nM | ≥ 20000 nM | – | Cc1nsc(Nc2cnc(C(F)(F)F)cn2)c1C(=O)Nc1ccc(OCC2CCN(CCF)CC2)nc1 [Example 344, N-(6-{[1-(2-fluoroethyl)piperidin-4-yl]methoxy}pyridin-3-yl)-3-methyl-5-{[5-(trifluoromethyl)pyrazin-2-yl]amino}-1,2-thiazole-4-carboxamide]
24 | 1100 nM | 19000 nM | – | Cc1nsc(Nc2cnc(C(F)(F)F)cn2)c1C(=O)Nc1ccc(OCCCN(C)CCF)nc1 [Example 352, N-(6-{3-[(2-fluoroethyl)(methyl)amino]propoxy}pyridin-3-yl)-3-methyl-5-{[5-(trifluoromethyl)pyrazin-2-yl]amino}-1,2-thiazole-4-carboxamide]
